{
  "source": "the supplement of paper PMC10307832",
  "experiment_in_all_cases": "relative viability (nuclei count vs DMSO), 5 days (fraction); higher = more cells survive",
  "key": {"ABC-1": {"system": "ABC-1", "summary_of_the_method": "(§1)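 Dosing by pin tool came one day after lung cancer cell lines were seeded in 1536-well plates, using either one drug or a fixed anchor-drug dose plus five library-drug doses (not always all listed) in √10 steps. After 5 days, nuclei were counted on 4× images. Relative viability is treated-well nuclei count divided by vehicle-well nuclei count, and values are medians of duplicate plates.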"}, "HCC-78": {"system": "HCC-78", "summary_of_the_method": "as §1"}, "NCI-H2170": {"system": "NCI-H2170", "summary_of_the_method": "as §1"}, "NCI-H1792": {"system": "NCI-H1792", "summary_of_the_method": "as §1"}, "NCI-H2023": {"system": "NCI-H2023", "summary_of_the_method": "as §1"}, "LOU-NH91": {"system": "LOU-NH91", "summary_of_the_method": "as §1"}, "NCI-H1755": {"system": "NCI-H1755", "summary_of_the_method": "as §1"}, "NCI-H1355": {"system": "NCI-H1355", "summary_of_the_method": "as §1"}, "LCLC-97TM1": {"system": "LCLC-97TM1", "summary_of_the_method": "as §1"}, "NCI-H727": {"system": "NCI-H727", "summary_of_the_method": "as §1"}, "NCI-H2085": {"system": "NCI-H2085", "summary_of_the_method": "as §1"}, "HOP-62": {"system": "HOP-62", "summary_of_the_method": "as §1"}, "NCI-H1437": {"system": "NCI-H1437", "summary_of_the_method": "as §1"}, "SK-MES-1": {"system": "SK-MES-1", "summary_of_the_method": "as §1"}, "NCI-H2405": {"system": "NCI-H2405", "summary_of_the_method": "as §1"}, "UMC-11": {"system": "UMC-11", "summary_of_the_method": "as §1"}, "NCI-H2009": {"system": "NCI-H2009", "summary_of_the_method": "as §1"}, "NCI-H23": {"system": "NCI-H23", "summary_of_the_method": "as §1"}, "NCI-H650": {"system": "NCI-H650", "summary_of_the_method": "as §1"}, "RERF-LC-KJ": {"system": "RERF-LC-KJ", "summary_of_the_method": "as §1"}, "NCI-H322M": {"system": "NCI-H322M", "summary_of_the_method": "as §1"}},
  "data": [
    {"smiles": "Cc1cnc(-c2cnc(NCCNc3ccc(C#N)cn3)nc2-c2ccc(Cl)cc2Cl)[nH]1", "note": "+ CS(=O)(=O)CCNCc1ccc(-c2ccc3ncnc(Nc4ccc(OCc5cccc(F)c5)c(Cl)c4)c3c2)o1 [Lapatinib] (partner 2 µM)", "values": [
      {"measurement": "relative viability", "setting": "ABC-1; first compound 0.08 µM", "value": 1.22},
      {"measurement": "relative viability", "setting": "ABC-1; first compound 0.253 µM", "value": 0.969},
      {"measurement": "relative viability", "setting": "ABC-1; first compound 0.8 µM", "value": 1.09},
      {"measurement": "relative viability", "setting": "ABC-1; first compound 2.53 µM", "value": 1.11},
      {"measurement": "relative viability", "setting": "HCC-78; first compound 0.08 µM", "value": 0.449},
      {"measurement": "relative viability", "setting": "HCC-78; first compound 0.253 µM", "value": 0.528},
      {"measurement": "relative viability", "setting": "HCC-78; first compound 0.8 µM", "value": 1.12},
      {"measurement": "relative viability", "setting": "HCC-78; first compound 2.53 µM", "value": 0.546},
      {"measurement": "relative viability", "setting": "NCI-H2170; first compound 0.08 µM", "value": 0.298},
      {"measurement": "relative viability", "setting": "NCI-H2170; first compound 0.253 µM", "value": 0.262},
      {"measurement": "relative viability", "setting": "NCI-H2170; first compound 0.8 µM", "value": 0.279},
      {"measurement": "relative viability", "setting": "NCI-H2170; first compound 2.53 µM", "value": 0.32},
      {"measurement": "relative viability", "setting": "NCI-H1792; first compound 0.08 µM", "value": 0.927},
      {"measurement": "relative viability", "setting": "NCI-H1792; first compound 0.253 µM", "value": 0.756},
      {"measurement": "relative viability", "setting": "NCI-H1792; first compound 0.8 µM", "value": 0.862},
      {"measurement": "relative viability", "setting": "NCI-H1792; first compound 2.53 µM", "value": 0.866},
      {"measurement": "relative viability", "setting": "NCI-H2023; first compound 0.08 µM", "value": 1.23},
      {"measurement": "relative viability", "setting": "NCI-H2023; first compound 0.253 µM", "value": 0.431},
      {"measurement": "relative viability", "setting": "NCI-H2023; first compound 0.8 µM", "value": 0.827},
      {"measurement": "relative viability", "setting": "NCI-H2023; first compound 2.53 µM", "value": 0.913},
      {"measurement": "relative viability", "setting": "LOU-NH91; first compound 0.08 µM", "value": 0.811},
      {"measurement": "relative viability", "setting": "LOU-NH91; first compound 0.253 µM", "value": 0.738},
      {"measurement": "relative viability", "setting": "LOU-NH91; first compound 0.8 µM", "value": 0.739},
      {"measurement": "relative viability", "setting": "LOU-NH91; first compound 2.53 µM", "value": 0.866},
      {"measurement": "relative viability", "setting": "NCI-H1755; first compound 0.08 µM", "value": 1.04},
      {"measurement": "relative viability", "setting": "NCI-H1755; first compound 0.253 µM", "value": 0.785},
      {"measurement": "relative viability", "setting": "NCI-H1755; first compound 0.8 µM", "value": 1.06},
      {"measurement": "relative viability", "setting": "NCI-H1755; first compound 2.53 µM", "value": 1.07},
      {"measurement": "relative viability", "setting": "NCI-H1355; first compound 0.08 µM", "value": 1.06},
      {"measurement": "relative viability", "setting": "NCI-H1355; first compound 0.253 µM", "value": 0.8},
      {"measurement": "relative viability", "setting": "NCI-H1355; first compound 0.8 µM", "value": 0.95},
      {"measurement": "relative viability", "setting": "NCI-H1355; first compound 2.53 µM", "value": 0.909},
      {"measurement": "relative viability", "setting": "LCLC-97TM1; first compound 0.08 µM", "value": 1.1},
      {"measurement": "relative viability", "setting": "LCLC-97TM1; first compound 0.253 µM", "value": 0.883},
      {"measurement": "relative viability", "setting": "LCLC-97TM1; first compound 0.8 µM", "value": 1.07},
      {"measurement": "relative viability", "setting": "LCLC-97TM1; first compound 2.53 µM", "value": 0.745},
      {"measurement": "relative viability", "setting": "NCI-H727; first compound 0.08 µM", "value": 0.822},
      {"measurement": "relative viability", "setting": "NCI-H727; first compound 0.253 µM", "value": 0.882},
      {"measurement": "relative viability", "setting": "NCI-H727; first compound 0.8 µM", "value": 0.765},
      {"measurement": "relative viability", "setting": "NCI-H727; first compound 2.53 µM", "value": 0.782},
      {"measurement": "relative viability", "setting": "NCI-H2085; first compound 0.08 µM", "value": 0.837},
      {"measurement": "relative viability", "setting": "NCI-H2085; first compound 0.253 µM", "value": 0.8},
      {"measurement": "relative viability", "setting": "NCI-H2085; first compound 0.8 µM", "value": 0.786},
      {"measurement": "relative viability", "setting": "NCI-H2085; first compound 2.53 µM", "value": 0.848},
      {"measurement": "relative viability", "setting": "HOP-62; first compound 0.08 µM", "value": 1.01},
      {"measurement": "relative viability", "setting": "HOP-62; first compound 0.253 µM", "value": 0.902},
      {"measurement": "relative viability", "setting": "HOP-62; first compound 0.8 µM", "value": 1.05},
      {"measurement": "relative viability", "setting": "HOP-62; first compound 2.53 µM", "value": 1.04},
      {"measurement": "relative viability", "setting": "NCI-H1437; first compound 0.08 µM", "value": 0.848},
      {"measurement": "relative viability", "setting": "NCI-H1437; first compound 0.253 µM", "value": 0.715},
      {"measurement": "relative viability", "setting": "NCI-H1437; first compound 0.8 µM", "value": 0.805},
      {"measurement": "relative viability", "setting": "NCI-H1437; first compound 2.53 µM", "value": 0.793},
      {"measurement": "relative viability", "setting": "SK-MES-1; first compound 0.08 µM", "value": 0.514},
      {"measurement": "relative viability", "setting": "SK-MES-1; first compound 0.253 µM", "value": 0.474},
      {"measurement": "relative viability", "setting": "SK-MES-1; first compound 0.8 µM", "value": 0.439},
      {"measurement": "relative viability", "setting": "SK-MES-1; first compound 2.53 µM", "value": 0.559},
      {"measurement": "relative viability", "setting": "NCI-H2405; first compound 0.08 µM", "value": 1.11},
      {"measurement": "relative viability", "setting": "NCI-H2405; first compound 0.253 µM", "value": 1.01},
      {"measurement": "relative viability", "setting": "NCI-H2405; first compound 0.8 µM", "value": 0.741},
      {"measurement": "relative viability", "setting": "NCI-H2405; first compound 2.53 µM", "value": 0.523},
      {"measurement": "relative viability", "setting": "UMC-11; first compound 0.08 µM", "value": 1.22},
      {"measurement": "relative viability", "setting": "UMC-11; first compound 0.253 µM", "value": 0.7},
      {"measurement": "relative viability", "setting": "UMC-11; first compound 0.8 µM", "value": 0.697},
      {"measurement": "relative viability", "setting": "UMC-11; first compound 2.53 µM", "value": 1.09},
      {"measurement": "relative viability", "setting": "NCI-H2009; first compound 0.08 µM", "value": 0.991},
      {"measurement": "relative viability", "setting": "NCI-H2009; first compound 0.253 µM", "value": 0.522},
      {"measurement": "relative viability", "setting": "NCI-H2009; first compound 0.8 µM", "value": 0.866},
      {"measurement": "relative viability", "setting": "NCI-H2009; first compound 2.53 µM", "value": 0.905},
      {"measurement": "relative viability", "setting": "NCI-H23; first compound 0.08 µM", "value": 1.14},
      {"measurement": "relative viability", "setting": "NCI-H23; first compound 0.253 µM", "value": 1.02},
      {"measurement": "relative viability", "setting": "NCI-H23; first compound 0.8 µM", "value": 1.07},
      {"measurement": "relative viability", "setting": "NCI-H23; first compound 2.53 µM", "value": 1.11},
      {"measurement": "relative viability", "setting": "NCI-H650; first compound 0.08 µM", "value": 0.926},
      {"measurement": "relative viability", "setting": "NCI-H650; first compound 0.253 µM", "value": 1.12},
      {"measurement": "relative viability", "setting": "NCI-H650; first compound 0.8 µM", "value": 0.478},
      {"measurement": "relative viability", "setting": "NCI-H650; first compound 2.53 µM", "value": 0.789},
      {"measurement": "relative viability", "setting": "RERF-LC-KJ; first compound 0.08 µM", "value": 0.902},
      {"measurement": "relative viability", "setting": "RERF-LC-KJ; first compound 0.253 µM", "value": 0.777},
      {"measurement": "relative viability", "setting": "RERF-LC-KJ; first compound 0.8 µM", "value": 0.771},
      {"measurement": "relative viability", "setting": "RERF-LC-KJ; first compound 2.53 µM", "value": 0.932},
      {"measurement": "relative viability", "setting": "NCI-H322M; first compound 0.08 µM", "value": 0.575},
      {"measurement": "relative viability", "setting": "NCI-H322M; first compound 0.253 µM", "value": 0.565},
      {"measurement": "relative viability", "setting": "NCI-H322M; first compound 0.8 µM", "value": 0.594},
      {"measurement": "relative viability", "setting": "NCI-H322M; first compound 2.53 µM", "value": 0.555}
    ]}
  ]
}
